The values below come from patent US6949556B2, “Acylated 1,2,3,4-tetrahydronaphthyl amines and their use as pharmaceutical agents” (Aventis Pharma Deutschland GmbH, priority 2001, dated 2005).

This experiment concerns the target eNOS promoter. Kind of experiment: Activation of eNOS transcription (eNOS promoter firefly luciferase reporter). The experiment is classed as cell-based. The conditions noted are these: EC50 of transcription induction ratio (TIR) vs compound concentration, determined graphically; stably transfected human endothelial cell line, 18 h incubation. As to the method: Activation of eNOS transcription was measured as described in detail in Li et al. “Activation of protein kinase C alpha and/or epsilon enhances transcription of the human endothelial nitric oxide synthase gene”, Mol. Pharmacol. 1998; 53: 630-637. Briefly, a 3.5 kB long fragment 5′ of the starting codon of the eNOS gene was cloned, sequenced and cloned in firefly luciferase expression plasmids to monitor activation of the eNOS promoter by reporter gene activity. A human endothelial cell line stable transfected and expressing this promoter-reporter construct was used for compound testing. Cells were incubated for 18 h with compounds.
All compounds were dissolved in sterile DMSO. A final concentration of 0.5% DMSO in complete medium was allowed. Induction of reporter gene expression in these cells was measured using a standard luciferase assay system (Promega, Cat. No E150) according to the manufacturer's instructions. Luciferase induction in cells incubated with compounds were compared to those incubated with solvent alone. The ratio of both activities (transcription induction ratio, TIR) was plotted as a function of compound concentration. Typically, TIR values started at low concentrations at a ratio of 1, indicating no compound effect, and extended up to a maximum TIR value TIR(max) which indicates the increase of the eNOS transcription. EC50 values of transcription induction ratios as a function of compound concentration were determined graphically.
For orientation: In a reporter assay the amount or activity of a reporter protein is the signal.

For `N#Cc1ccc(C(=O)N[C@@H]2CCc3ccccc3C2)cn1` [Compound 56, 6-Cyano-N-(R)-1,2,3,4-tetrahydro-naphthalen-2-yl-nicotinamide], the EC50 is 2.75 µM.
The figure for `Cc1nc(C)c(C(=O)N[C@@H]2CCc3ccccc3C2)s1` [Compound 29, 2,4-Dimethyl-thiazole-5-carboxylic acid N-(R)-(1,2,3,4-tetrahydro-naphthalen-2-yl)-amide] is 10.5 µM; for `Cc1ncccc1C(=O)N[C@@H]1CCc2ccccc2C1` [Compound 27, 2-Methyl-N-(R)-1,2,3,4-tetrahydro-naphthalen-2-yl-nicotinamide] it is 0.18 µM.
The figure for `Cc1nc2cc(C(=O)N[C@@H]3CCc4ccccc4C3)ccc2[nH]1` [Compound 52, 2-Methyl-1H-benzoimidazole-5-carboxylic acid N-(R)-(1,2,3,4-tetrahydro-naphthalen-2-yl)-amide] is 24.4 µM; for `O=C(N[C@H]1CCc2cccc(Br)c2C1)c1ccc(F)cc1` [Compound 5, (S)-N-(8-Bromo-1,2,3,4-tetrahydro-naphth-2-yl)-4-fluoro-benzamide] it is 10 µM; for `Cc1nc(C(F)(F)F)ccc1C(=O)N[C@@H]1CCc2ccccc2C1` [Compound 54, 2-Methyl-N-(R)-1,2,3,4-tetrahydro-naphthalen-2-yl-6-trifluoromethyl-nicotinamide] it is 16.3 µM.
For `Cc1ccc(C(=O)N[C@H]2CCc3ccccc3C2)c(Cl)n1` [Compound 40, 2-Chloro-6-methyl-N-(S)-1,2,3,4-tetrahydro-naphthalen-2-yl-nicotinamide], the EC50 came out at 13.6 µM.
On to `O=C(N[C@H]1CCc2ccccc2C1)c1cccc2[nH]ccc12` [Compound 22, 1H-Indole-4-carboxylic acid-N-(S)-(1,2,3,4-tetrahydro-naphthalen-2-yl)-amide], for which the EC50 was 8.82 µM.
As for `O=C(N[C@@H]1CCc2ccccc2C1)c1ccc2[nH]cnc2c1` [Compound 23, 1H-Benzoimidazole-5-carboxylic acid N-(R)-(1,2,3,4-tetrahydro-naphthalen-2-yl)-amide], the EC50 amounted to 11.5 µM.

The term EC50 denotes the midpoint of the concentration-response curve.
